The nature of data set [1]: serum hormone levels in post-menopausal breast cancer patients. In kind it is in vivo, post-menopausal women. Conditions: versus pre-therapy, FIG. 2.
Source text: Five post-menopausal women having similar patient socio-demographic characteristics and ranging in age from 49 years to 56 years (median age 54) were selected for study. Each woman had been diagnosed with node-negative estrogen receptor and PR (Progesterone Receptor) positive BCa (Breast cancer), with tumor sizes ranging from 1.9 cm to 2.3 cm (median tumor size of 2.1 cm) and selected post-surgery (e.g., mastectomy, lumpectomy, or quadrantectomy for primary breast cancer) and post-chemotherapy. None had been subjected to previous attempts at hormone replacement therapy.
(§1) Each woman selected was subjected to four weeks of aromatase inhibitor therapy (anastrozole 1 mg (ARIMIDEX®) orally as a tablet once a day), and thereafter to an additional eight weeks of the same aromatase inhibitor therapy in combination with the oral administration of 40 mg of testosterone undecanoate as a tablet once a day. During this study, side effects associated with aromatase inhibitor treatment were measured at three separate times: prior to the first week of aromatase inhibitor therapy, following the fourth week of aromatase inhibitor therapy but before administration of testosterone undecanoate was begun, and following the eighth week of combined aromatase inhibitor and androgen replacement therapy.
The y axis is picomoles/L of serum.
Data set [2] concerns post-menopausal patients. More on the design: species or system post-menopausal women. Conditions: in vivo. The source says:
An endocrine subscale (FACT-ES) to accompany a well-validated QOL measure called the FACT-B (Brady, M J., et al., Journal of Clinical. Oncology., Vol. 15, No. 3 (March 1997) pp. 974-986, which is incorporated in its entirety) was developed specifically for use in trials using drugs likely to cause endocrine related symptoms. See Fallowfield, L J, et al., Breast Cancer Research and Treatment, Vol. 55, No. 2, 1999, pp. 189-199, which is incorporated herein by reference in its entirety. Also, FACT-ES is a validated questionnaire designed to measure quality of life of women with breast cancer who are being treated with endocrine therapies. It consists of the FACT-B questionnaire plus an additional endocrine subscale. FACT-B (breast) consists of the FACT-G (general) QOL tool for cancer patients plus the Breast Cancer subscale. FACT-ES has been developed to measure QOL in patients receiving endocrine therapy for breast cancer. This instrument (FACT-ES) should, therefore, be sensitive to QOL changes in patients in this trial. […]
At the three assessment times during the study, the quality of life for each patient was assessed using standard Functional Assessment of Cancer Therapy-Endocrine Symptoms (FACT-ES) questionnaire (See FIG. 8), which questionnaire is a standard method for determining the occurrence and prominence of treatment-related symptoms and side-effects in breast cancer patients. […]

Data set [3] relates to post-menopausal patients. Conditions: in vivo.
Source text: The Western Ontario and McMaster Universities (WOMAC) Osteoarthritis Index™ consists of three VAS, one each pertaining to pain, joint stiffness and physical function. This then gives the WOMAC™ osteoarthritis index composite score.
Five post-menopausal women having similar patient socio-demographic characteristics and ranging in age from 49 years to 56 years (median age 54) were selected for study. […]
as §1
The y axis is a visual analogue pain scale. Specifically, the y axis indicates a percentage score of a subjective quantification of pain measured out of 100.
Data set [4] concerns post-menopausal patients. Conditions: in vivo. This is another data set of the same source.
Source text: Another embodiment of this invention involves measuring cognitive function, including processing speed, working memory, visual memory, and verbal memory.
Five post-menopausal women having similar patient socio-demographic characteristics and ranging in age from 49 years to 56 years (median age 54) were selected for study. Each woman had been diagnosed with node-negative estrogen receptor and PR (Progesterone Receptor) positive BCa (Breast cancer), with tumor sizes ranging from 1.9 cm to 2.3 cm (median tumor size of 2.1 cm) and selected post-surgery (e.g., mastectomy, lumpectomy, or quadrantectomy for primary breast cancer) and post-chemotherapy. […]
Each woman selected was subjected to four weeks of aromatase inhibitor therapy (anastrozole 1 mg (ARIMIDEX®) orally as a tablet once a day), and thereafter to an additional eight weeks of the same aromatase inhibitor therapy in combination with the oral administration of 40 mg of testosterone undecanoate as a tablet once a day. During this study, side effects associated with aromatase inhibitor treatment were measured at three separate times: prior to the first week of aromatase inhibitor therapy, following the fourth week of aromatase inhibitor therapy but before administration of testosterone undecanoate was begun, and following the eighth week of combined aromatase inhibitor and androgen replacement therapy. […]
The conditions of data set [5]: cited from earlier work.
For data set [6] the following is noted: cited from earlier work. This is another data set of the same source.

With `CC(C)(C#N)c1cc(Cn2cncn2)cc(C(C)(C)C#N)c1` [Al only, anastrozole], the “average estradiol (E2) serum level” value in data set [1] (following the fourth week of aromatase inhibitor therapy (anastrozole 1 mg once a day)) is given as “drops significantly”. In data set [1] (following the fourth week of aromatase inhibitor therapy), the “remainder of the serum hormone levels (T, FreeT, DHT)” value is given as “relatively unchanged”. Moreover, the “quality of life as measured by FACT-ES questionnaires” value with post-menopausal patients [2] was “decreased”. Further, the reported arthralgia symptoms entry with post-menopausal patients [3] was “elevated levels of arthralgia”. Moreover, in the data set on post-menopausal patients [4], the “cognitive function scores (processing speed, working memory, visual memory, verbal memory; mean Z score)” value is reported as “decreased across all four ability types”.

As for `CCC1(c2ccc(N)cc2)CCC(=O)NC1=O` (stereo not shown) [aminoglutethimide], the tolerability entry in data set [5] (Cash, Brough et al 1967) is given as “poorly tolerated”. The adrenal suppression entry in data set [5] (limited the use of the drug) is on record as “marked adrenal suppression”.

On to `CCCCCCCCCCC(=O)O[C@H]1CC[C@H]2[C@@H]3CCC4=CC(=O)CC[C@]4(C)[C@H]3CC[C@]12C` [testosterone undecanoate], for which the oral bioavailability result in data set [6] (by-passes the liver via the lymphatic system) is recorded as “orally bioavailable”.

Take `C[C@]12CC[C@H]3[C@@H](CCC4=CC(=O)CC[C@@]43C)[C@@H]1CC[C@@H]2O` [testosterone]: the “testosterone broken down in the liver as it is absorbed from the gut” value in data set [6] (oral delivery) is recorded as 80-90%. Also, in data set [6] (oral), the “testosterone broken down in the intestines by aromatase and other metabolic pathways” value is listed as “approximately 85%”.

(Values after patent publication US10765684B2, “Reduction of side effects from aromatase inhibitors used for treating breast cancer” (HAVAH THERAPEUTICS PTY LTD, priority 2005, dated 2020).)
